Assay results as given in US20100209530A1, “ANTI-ALLERGEN AGENT” (priority 2007, published 2010).

Legend:
allergen = assay: Allergen inactivating effect after standing in PBS (discoloration test); format: biochemical; details: 1 mg after 3 days in 0.5 mL PBS at room temperature
Procedure: (§1) 1 mg of anti-allergen agent (1) of Example 2-1 was placed in 0.5 mL of PBS (pH 7.29, containing 0.1% Tween 20 and 0.001% BSA) and allowed to stand at room temperature for 3 days, color change and allergen inactivating effect were then measured, and the results are shown in Table 7.
(§2) 1 mg of tannic acid was placed in 0.5 mL of PBS (pH 7.29, containing 0.1% Tween 20 and 0.001% BSA) and allowed to stand at room temperature for 3 days, color change and allergen inactivating effect were then measured, and the results are shown in Table 7.

[1] = molecular target: T1, Dermatophagoides farinae allergen (Den) (Dermatophagoides farinae, UniProt Q00855); assay: ELISA, anti-allergen effect of processed fiber product; format: biochemical; details: fabric after washing in 500 mL ion exchanged water 1 minute, air-dried; standardized to blank = 0
T1 sequence (Q00855 18-146): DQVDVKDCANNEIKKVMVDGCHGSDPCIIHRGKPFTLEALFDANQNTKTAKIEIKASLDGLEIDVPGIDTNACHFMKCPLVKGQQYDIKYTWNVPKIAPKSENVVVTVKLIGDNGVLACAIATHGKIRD
Procedure: When a test target is an article comprising another substance in addition to an anti-allergen agent, such as a coating agent containing an anti-allergen agent, a resin kneaded with an anti-allergen agent, or a fiber having an anti-allergen agent attached thereto, a blank test is carried out using the same article except that the anti-allergen agent is excluded, and other measurement results may be standardized so that the percentage allergen inactivation of the blank test becomes 0. In this case, as long as it is stated that a measurement result is standardized, the value after standardization may be used as the percentage allergen inactivation.
The anti-allergen effects of a processed fiber product were evaluated as percentage anti-allergen inactivation from Equation 1 above by measuring absorbance by the same ELISA method as for a solid acid powder using Dermatophagoides farinae allergen (Den) as the allergen and dividing […] of fiber into 8, and comparing with the absorbance when a fiber product having no solid acid added thereto was used.

[2] = molecular target: T2, Dermatophagoides farinae allergen (DerfII) (Dermatophagoides farinae, UniProt Q00855); format: biochemical; details: 1 mg of sample
T2 sequence (Q00855 18-146): T1 sequence (Q00855 18-146)
Procedure: (§3) The anti-allergen effect of the present invention is evaluated by a sandwich ELISA method, which is widely known as a method for detecting/quantifying an antigen, and is expressed as the percentage allergen inactivation shown in Equation 1. The initial amount of allergen means the amount of allergen used in an ELISA evaluation, and the amount of allergen remaining means the amount of allergen after contacting a sample.
(§4) Percentage allergen inactivation=(1−amount of allergen remaining/initial amount of allergen)×100(%) <Equation 1>
Anti-allergen effects were evaluated by a sandwich ELISA method employing Dermatophagoides farinae allergen (allergen generally called DerfII) and Cryptomeria japonica pollen allergen (allergen generally called Cryj1). […]
1 mg or 10 mg of a sample was weighed, and 500 μL of Dermatophagoides farinae allergen (DerfII) prepared at 40 ng/mL using an antigen diluent was added thereto. […] After 30 minutes, 2N sulfuric acid was added so as to stop the reaction, and the absorbance at 490 nm was measured. The results were expressed as percentage allergen inactivation of various samples by determining the relationship between amount of allergen and absorbance from an evaluation carried out without using a sample, determining the amount of allergen remaining from the absorbance obtained when evaluating various types of samples, and calculating from equation 1.

[3] = Yellowness (YI value, JIS-K7103-1977); format: physicochemical; details: powder
Text: With regard to a preferred yellowness, the YI value in accordance with JIS-K7103-1977 is preferably 50 or less, more preferably 20 or less, and yet more preferably 15 or less.

[4] = Discoloration test in PBS or ion exchanged water; format: physicochemical
Procedure: as §1
1 mg of anti-allergen agent (1) of Example 2-1 was placed in 0.5 mL of ion exchanged water (pH 6.37) and allowed to stand at room temperature for 7 days, color change was then examined, and the result is shown in Table 7.
as §2
1 mg of tannic acid was placed in 0.5 mL of ion exchanged water (pH 6.37) and allowed to stand at room temperature for 7 days, color change was examined, and the result is shown in Table 7.

[5] = molecular target: T3, Cryptomeria japonica pollen allergen (Cryj1) (Cryptomeria japonica, UniProt P18632); format: biochemical; details: 1 mg of sample
T3 sequence (P18632 22-374): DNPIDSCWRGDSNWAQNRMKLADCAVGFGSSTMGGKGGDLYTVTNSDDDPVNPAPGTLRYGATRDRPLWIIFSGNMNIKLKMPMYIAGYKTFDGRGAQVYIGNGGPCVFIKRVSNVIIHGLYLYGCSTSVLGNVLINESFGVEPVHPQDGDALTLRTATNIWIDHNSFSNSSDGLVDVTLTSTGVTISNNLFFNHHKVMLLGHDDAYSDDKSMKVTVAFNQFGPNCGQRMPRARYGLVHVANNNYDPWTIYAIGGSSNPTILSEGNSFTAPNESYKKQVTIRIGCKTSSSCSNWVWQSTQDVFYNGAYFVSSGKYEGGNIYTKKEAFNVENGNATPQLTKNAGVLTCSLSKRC
Procedure: as §3, §4
The test procedure for the sandwich ELISA method when Cryptomeria japonica pollen allergen was used was as follows.
1 mg or 10 mg of a sample was weighed, and 500 μL of Cryptomeria japonica pollen allergen (Cryj1) prepared at 10 ng/mL using an antigen diluent was added thereto. […] After 2 hours, the antibody liquid was discarded, each well was washed with washing buffer, a substrate liquid was added to each well, and the wells were allowed to stand at room temperature. After 10 minutes, 2N sulfuric acid was added so as to stop the reaction, and the absorbance at 490 nm was measured. The results are expressed as percentage allergen inactivation of various types of samples by calculating from Equation 1 by the same method as for Dermatophagoides farinae allergen.

O=C(OC[C@H]1O[C@@H](OC(=O)c2cc(O)c(O)c(OC(=O)c3cc(O)c(O)c(O)c3)c2)[C@H](OC(=O)c2cc(O)c(O)c(OC(=O)c3cc(O)c(O)c(O)c3)c2)[C@@H](OC(=O)c2cc(O)c(O)c(OC(=O)c3cc(O)c(O)c(O)c3)c2)[C@@H]1OC(=O)c1cc(O)c(O)c(OC(=O)c2cc(O)c(O)c(O)c2)c1)c1cc(O)c(O)c(OC(=O)c2cc(O)c(O)c(O)c2)c1 [Comparative Example 2-1, Tannic Acid]
Percentage allergen inactivation (%) (allergen): Less than 50% | Percentage allergen inactivation (%) [1]: activity disappeared after washing | Percentage allergen inactivation (%) DerfII [2]: 95% | Yellowness [3]: 71.28 | Yellowness ([3]; listed as tannic acid): 71.8 | Color of solution (after evaluation) ([4]; 1 mg in 0.5 mL PBS pH 7.29 (0.1% Tween 20, 0.001% BSA), room temperature, 3 days): Brown | Color of solution (after evaluation) ([4]; 1 mg in 0.5 mL ion exchanged water pH 6.37, room temperature, 7 days): Brown | Percentage allergen inactivation (%) Cryj1 [5]: 97%
